Experimental data published in ChEMBL document CHEMBL1129679 (J Med Chem, 1996).

Assays:
Dihydrofolate reductase [1] = molecular target: T1, Dihydrofolate reductase (Homo sapiens, UniProt P00374); experiment: Inhibitory activity against Dihydrofolate reductase (DHFR) isolated from CCRF-CEM human leukemia cells in experiment 1; type: cell-free
T1 sequence (P00374 whole entry): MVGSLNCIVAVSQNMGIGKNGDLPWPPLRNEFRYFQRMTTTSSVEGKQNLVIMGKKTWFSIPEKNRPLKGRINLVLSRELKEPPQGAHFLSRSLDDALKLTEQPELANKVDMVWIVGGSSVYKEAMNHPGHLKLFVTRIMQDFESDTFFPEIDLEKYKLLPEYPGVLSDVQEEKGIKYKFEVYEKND

Dihydrofolate reductase [2] = molecular target: T1, Dihydrofolate reductase; experiment: Inhibitory activity against Dihydrofolate reductase (DHFR) isolated from CCRF-CEM human leukemia cells in experiment 2; type: cell-free

| IC50 (Dihydrofolate reductase [1]) | IC50 (Dihydrofolate reductase [2]) | Structure (SMILES) |
| --- | --- | --- |
| 0.84 nM | – | CN(Cc1cnc2nc(N)nc(N)c2n1)c1ccc(C(=O)N[C@H](C[C@@H](F)C(=O)O)C(=O)O)cc1 |
| 1.35 nM | – | CN(Cc1cnc2nc(N)nc(N)c2n1)c1ccc(C(=O)NC(CC(F)C(=O)O)C(=O)O)cc1 (racemic) |
| – | 1.34 nM | CN(Cc1cnc2nc(N)nc(N)c2n1)c1ccc(C(=O)NC(C(=O)O)C(F)(F)CC(=O)O)cc1 (racemic) |
